The results in this text go back to patent US20110306597A1, “Nicotinamide Derivatives” (priority 2008, published 2011).

Chain of human recombinant H-PGDS (O60760 whole entry): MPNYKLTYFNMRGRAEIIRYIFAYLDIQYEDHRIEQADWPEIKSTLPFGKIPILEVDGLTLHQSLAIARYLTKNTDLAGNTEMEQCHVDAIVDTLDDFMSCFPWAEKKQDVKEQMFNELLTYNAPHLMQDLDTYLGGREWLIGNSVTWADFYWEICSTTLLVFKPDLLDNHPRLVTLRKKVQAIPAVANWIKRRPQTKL

In this assay the target is human recombinant H-PGDS (Homo sapiens, UniProt O60760). Nature of the assay: Fluorescence Intensity h-PGDS TBA Enzyme Assay. Type of assay: biochemical. The conditions noted are these: 1:175,000 human recombinant H-PGDS, highest inhibitor concentration typically 1 μM. The method in brief:
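Recombinant human H-PGDS preincubated 10 min at room temperature with inhibitor in 100 mM Tris pH 8.0, 100 μM MgCl2, 2.5 mM glutathione, 0.5% DMSO; 5.0 μM PGH2 added, stopped after 42 s with FeCl2/citric acid. Remaining PGH2 measured as MDA–TBA fluorescence (ex 530/em 565 nm); IC50 by 4-parameter fit, 11 concentrations.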
As usually defined, the IC50 is the concentration that inhibits the measured activity by half. `NC(CC(=O)NC(=O)c1ccc(-c2cccc(F)c2)nc1)C1CC1` (stereo not drawn) [Example 444, N-(3-Amino-3-cyclopropylpropanoyl)-6-(3-fluorophenyl) nicotinamide]: the IC50 was determined as 95.2 nM. In the case of `CS(=O)(=O)CCNC(=O)c1ccc(-c2cccc(F)c2)nc1` [Example 28, 6-(3-Fluorophenyl)-N-[2-(methylsulfonyl)ethyl] nicotinamide] it was 47.1 nM; in that of `O=C(NCCN1CCCCC1)c1ccc(-c2cccc(F)c2)nc1` [Example 195, 6-(3-Fluorophenyl)-N-(2-piperidin-1-ylethyl)nicotinamide], 12.1 nM. Under `COC(C)(C)CNC(=O)c1ccc(-c2ccc(F)cc2)nc1` [Example 497, 6-(4-Fluorophenyl)-N-(2-methoxy-2-methylpropyl)nicotinamide] stands at least 1000 nM; under `COc1cccc(-c2ccc(C(=O)NCCNc3ccccc3)cn2)c1` [Example 486, N-(2-Anilinoethyl)-6-(3-methoxyphenyl)nicotinamide], 204 nM. On to `COc1cccc(-c2ccc(C(=O)NC(C)C)cn2)c1` [Example 297, N-Isopropyl-6-(3-methoxyphenyl)nicotinamide], for which the IC50 was 351 nM. Turning to `O=C(NCCN1CCNC1=O)c1ccc(-c2cccc(F)c2)nc1` [Example 148, 6-(3-Fluorophenyl)-N-[2-(2-oxoimidazolidin-1-yl)ethyl]nicotinamide], the IC50 came to 32 nM.

`O=C(NC1CCN(Cc2ccc(Cl)cc2)C1=O)c1ccc(-c2ccccc2)nc1` (stereo not drawn) [Example 377, N-[1-(4-Chlorobenzyl)-2-oxopyrrolidin-3-yl]-6-phenylnicotinamide]: the IC50 was found to be 11.2 nM. Under `CN(C)CCOc1ccc(CNC(=O)c2cnc(-c3cccc(F)c3)c(Cl)c2)cc1` [Example 561, 5-Chloro-N-{4-[2-(dimethylamino)ethoxy]benzyl}-6-(3-fluorophenyl)nicotinamide] stands 19.8 nM; under `COc1cccc(-c2ccc(C(=O)NCCCN3CCCC3=O)cn2)c1` [Example 290, 6-(3-Methoxyphenyl)-N-[3-(2-oxopyrrolidin-1-yl)propyl]nicotinamide], 627 nM; under `Cc1noc(CCNC(=O)c2ccc(-c3ccc(F)cc3)nc2)n1` [Example 496, 6-(4-Fluorophenyl)-N-[2-(3-methyl-1,2,4-oxadiazol-5-yl)ethyl]nicotinamide], 429 nM. Consider `COC(=O)CNC(=O)[C@H](C)NC(=O)c1ccc(-c2cccc(C)c2)nc1` [Example 229, Methyl N-{[6-(3-methylphenyl)pyridin-3-yl]carbonyl}-L-alanylglycinate], for which the IC50 was 125 nM. In the case of `CNS(=O)(=O)c1ccc(CNC(=O)c2ccc(-c3cc(F)cc(OC)c3)nc2)cc1` [Example 559, 6-(3-Fluoro-5-methoxyphenyl)-N-{4-[(methylamino)sulfonyl]benzyl}nicotinamide] it was 440 nM; in that of `Cc1noc(CC(NC(=O)c2ccc(-c3cccc(F)c3)nc2)c2ccccc2)n1` (stereo not drawn) [Example 87, 6-(3-Fluorophenyl)-N-[2-(3-methyl-1,2,4-oxadiazol-5-yl)-1-phenylethyl]nicotinamide], 35.8 nM. In the case of `Cc1nc(CCNC(=O)c2cnc(-c3cccc(F)c3)c(Cl)c2)cs1` [Example 544, 5-Chloro-6-(3-fluorophenyl)-N-[2-(2-methyl-1,3-thiazol-4-yl)ethyl]nicotinamide] it was 12 nM; in that of `Cc1nc(CCNC(=O)c2ccc(-c3cccc(F)c3)nc2)cs1` [Example 2, 6-(3-Fluorophenyl)-N-[2-(2-methyl-1,3-thiazol-4-yl)ethyl]nicotinamide], 3.53 nM. For `Cc1cccc(-c2ccc(C(=O)NCc3cccc(S(C)(=O)=O)c3)cn2)c1` [Example 245, 6-(3-Methylphenyl)-N-[3-(methylsulfonyl)benzyl] nicotinamide], the IC50 is 11.5 nM. “N-(4-Fluorophenyl)-6-(3- methoxyphenyl)nicotinamide [Example 307]”: the IC50 is 187 nM. For `COc1cccc(-c2ccc(C(=O)NCCN3CCN(Cc4ccccc4)CC3)cn2)c1` [Example 295, N-[2-(4-Benzylpiperazin-1-yl)ethyl]-6-(3-methoxyphenyl)nicotinamide], the IC50 was determined as 377 nM. Consider `COc1ccc(CNC(=O)c2ccc(-c3ccccc3)nc2)cc1` [Example 519, N-(4-Methoxybenzyl)-6-phenylnicotinamide], for which the IC50 came out at 8.3 nM. For `COc1cccc(-c2ccc(C(=O)NCC(C)(C)OC)cn2)c1` [Example 282, N-(2-Methoxy-2-methylpropyl)-6-(3-methoxyphenyl)nicotinamide], the half-inhibitory concentration (IC50) came out at 959 nM.

As for `O=C(CNC(=O)c1ccc(-c2cccc(F)c2)nc1)OCc1ccccc1` [Example 418, Benzyl N-{[6-(3-fluorophenyl)pyridin-3-yl]carbonyl}glycinate], the IC50 was 96.1 nM. As for `CN(C)CCCCCNC(=O)c1ccc(-c2cccc(F)c2)nc1` [Example 77, N-[5-(Dimethylamino)pentyl]-6-(3-fluorophenyl)nicotinamide], the IC50 was 90.3 nM. Under `COC(C)(C)CNC(=O)c1ccc(-c2cccc(C)c2)nc1` [Example 232, N-(2-Methoxy-2-methylpropyl)-6-(3-methylphenyl)nicotinamide] stands 137 nM; under `O=C(NCc1ccc(-n2cncn2)cc1)c1ccc(-c2ccc(F)cc2)nc1` [Example 329, 6-(4-Fluorophenyl)-N-[4-(1H-1,2,4-triazol-1-yl)benzyl]nicotinamide], 552 nM; under `O=C(NCCn1nnc2ccccc21)c1ccc(-c2cccc(F)c2)nc1` [Example 82, N-[2-(1H-Benzotriazol-1-yl)ethyl]-6-(3-fluorophenyl)nicotinamide], 21.5 nM. As to `COc1cccc(-c2ccc(C(=O)NCC(=O)N(C)C)cn2)c1` [Example 343, N-[2-(Dimethylamino)-2-oxoethyl]-6-(3-methoxyphenyl)nicotinamide], the IC50 was found to be 975 nM.

For the molecule `COc1ccc(CNC(=O)c2ccc(-c3cccc(OC)c3)nc2)cc1` [Example 303, N-(4-Methoxybenzyl)-6-(3-methoxyphenyl)nicotinamide], the IC50 stood at 331 nM.

In the case of `COc1cccc(-c2ccc(C(=O)NCC(C)(C)CN(C)C)cn2)c1` [Example 342, N-[3-(Dimethylamino)-2,2-dimethylpropyl]-6-(3-methoxyphenyl)nicotinamide], the IC50 was at least 1000 nM.

In the case of `O=C(NCc1nnc(-c2cccnc2)[nH]1)c1ccc(-c2cccc(F)c2)nc1` [Example 524, 6-(3-Fluorophenyl)-N-[(5-pyridin-3-yl-4H-1,2,4-triazol-3-yl)methyl]nicotinamide], the IC50 was 9.36 nM. For the molecule `COc1cc(F)cc(-c2ccc(C(=O)NCCCN3CCCC3=O)cn2)c1` [Example 543, 6-(3-Fluoro-5-methoxyphenyl)-N-[3-(2-oxopyrrolidin-1-yl)propyl]nicotinamide], the IC50 was 104 nM. Under `O=C(NCc1nnc(-c2cccnc2)[nH]1)c1ccc(-c2ccccc2)nc1` [Example 514, 6-Phenyl-N-[(5-pyridin-3-yl-4H-1,2,4-triazol-3-yl)methyl]nicotinamide] stands 5.2 nM; under `Cc1cc(-c2cnc(C(C)(C)C)nc2CNC(=O)c2ccc(-c3cccc(F)c3)nc2)on1` [Example 122, N-{[2-tert-Butyl-5-(3-methylisoxazol-5-yl)pyrimidin-4-yl]methyl}-6-(3-fluorophenyl)nicotinamide], above 1000 nM.
